{"source": "paper PMC4764579", "about": "“Structural insights into the mechanism of activation of the TRPV1 channel by a membrane-bound tarantula toxin” (eLife, 2016)", "biological_target": "T1, rat TRPV1 (Rattus norvegicus, UniProt O35433)", "T1 construct": "expressed in transfected cells; host or cells: Xenopus laevis oocytes (cRNA injection, pGEM-HE vector)", "T1 sequence (O35433 whole entry)": "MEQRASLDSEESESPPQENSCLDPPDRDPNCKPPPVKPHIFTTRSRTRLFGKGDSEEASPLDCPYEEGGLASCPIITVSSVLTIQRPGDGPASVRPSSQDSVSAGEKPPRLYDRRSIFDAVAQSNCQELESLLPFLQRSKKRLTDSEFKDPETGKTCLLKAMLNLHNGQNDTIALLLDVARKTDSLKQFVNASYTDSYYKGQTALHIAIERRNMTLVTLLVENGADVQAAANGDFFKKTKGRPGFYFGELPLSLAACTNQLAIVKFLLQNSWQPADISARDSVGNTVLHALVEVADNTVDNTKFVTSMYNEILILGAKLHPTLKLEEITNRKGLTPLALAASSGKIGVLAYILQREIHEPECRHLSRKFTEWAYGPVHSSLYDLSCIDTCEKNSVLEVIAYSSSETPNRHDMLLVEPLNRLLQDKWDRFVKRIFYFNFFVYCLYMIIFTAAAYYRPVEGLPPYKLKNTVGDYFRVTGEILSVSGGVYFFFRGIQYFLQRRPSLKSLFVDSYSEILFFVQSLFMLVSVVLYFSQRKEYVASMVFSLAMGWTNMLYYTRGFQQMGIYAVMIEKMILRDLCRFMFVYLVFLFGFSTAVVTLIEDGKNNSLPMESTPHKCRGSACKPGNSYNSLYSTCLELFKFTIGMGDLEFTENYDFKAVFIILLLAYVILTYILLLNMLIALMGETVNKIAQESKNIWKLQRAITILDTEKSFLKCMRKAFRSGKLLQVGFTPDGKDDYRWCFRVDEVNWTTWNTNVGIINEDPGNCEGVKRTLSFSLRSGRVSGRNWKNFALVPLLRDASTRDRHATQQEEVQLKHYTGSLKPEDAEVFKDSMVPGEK", "assay": "Two-electrode voltage clamp recordings of oocytes expressing TRPV1, toxin current normalised to saturating capsaicin", "format": "cell-based", "conditions": "concentration-response, see Figure 3F", "text": "Figure 3. Validation of the proposed structural model of the TRPV1-DkTx complex. Close-up of K1 (A) and K2 (B) in the top-ranking ROSETTA model of DkTx bound to TRPV1. Side chains of TRPV1 residues where mutation disrupts DkTx-induced channel activation (I599, F649, A657 and F659) ([Bohlen et al., 2010]) are highlighted in purple. (C) Representative time courses of TRPV1 activation at +120 mV by either DkTx (left panel), K1K1 (middle panel) or K2K2 (right panel) measured from a train of voltage-ramps in the whole-cell configuration with the TRPV1 expressed in HEK cells. […] Fractional dissociation 1 min after toxin removal was quantified across cells as the current amplitude 1 min after toxin removal divided by the steady-state current amplitude in the presence of the toxin. […] Activation of the full-length TRPV1 channel by the toxin at different concentrations was measured in oocytes at a holding voltage of −60 mV. […]\nXenopus laevis oocytes were surgically removed and gently shaken for 60 min in a solution of 82.5 mM NaCl, 2.5 mM KCl, 1 mM MgCl2, 5 mM HEPES and 2 mg/mL collagenase. […] TRPV1 activity was recorded under voltage clamp using a two-electrode voltage clamp (OC-725C; Warner Instruments) in a 150-μL recording chamber. The recorded data were filtered at 1 kHz and digitized at 5 kHz using a digidata analog/digital converter and pClamp software (Molecular Devices). […]", "note": "Positions of bridges follow the written chain, without caps; N, C: chain ends. Residues, ends and D or L forms follow the SMILES beside them.", "data": [{"smiles": "CC[C@H](C)[C@@H]1NC(=O)[C@H](Cc2ccccc2)NC(=O)[C@H](C)NC(=O)[C@H](CC(C)C)NC(=O)[C@@H]2CCCN2C(=O)[C@@H]2CSSC[C@@H]3NC(=O)[C@H](C(C)C)NC(=O)[C@H](CCC(=O)O)NC(=O)CNC(=O)[C@H](CCC(=O)O)NC(=O)[C@H](CCCCN)NC(=O)[C@H](C)NC(=O)[C@@H](NC(=O)[C@@H](N)CC(N)=O)CSSC[C@H](NC(=O)[C@H](CSSC[C@@H](C(=O)N[C@@H](CCC(=O)O)C(=O)N[C@@H](CCCCN)C(=O)N[C@@H](Cc4ccc(O)cc4)C(=O)N[C@@H](CCCNC(=N)N)C(=O)O)NC(=O)[C@H](Cc4ccc(O)cc4)NC(=O)[C@@H]4CCCN4C1=O)NC(=O)[C@H](CCCCN)NC(=O)[C@H](CO)NC(=O)CNC(=O)[C@H](Cc1c[nH]c4ccccc14)NC(=O)CNC3=O)C(=O)N[C@@H](Cc1c[nH]cn1)C(=O)NCC(=O)N[C@@H](CC(C)C)C(=O)N[C@@H](CC(=O)O)C(=O)N2", "note": "[K2] (H-NCAKEGEVCGWGSKCCHGLDCPLAFIPYCEKYR-OH; disulfide 2-16, 9-21, 15-29 (inferred); N-terminus and C-terminus assumed)", "values": [{"measurement": "concentration range where activation of TRPV1 saturates (in words)", "value": "low micromolar range"}]}]}
